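The concentration for 50% growth inhibition is given as GI50. The concentration for full growth arrest is given as TGI.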
What was measured:
Test in all cases: NCI-60 cell line screen, 384-well format
HCT-116 colon = tested on: HCT-116 colon
HL-60(TB) leukemia = tested on: HL-60(TB) leukemia
OVCAR-4 ovarian = tested on: OVCAR-4 ovarian
SW-620 colon = tested on: SW-620 colon
SF-295 CNS = tested on: SF-295 CNS
SN12C renal = tested on: SN12C renal
UACC-62 melanoma = tested on: UACC-62 melanoma
TK-10 renal = tested on: TK-10 renal
U251 glioblastoma = tested on: U251 glioblastoma
M14 melanoma = tested on: M14 melanoma
RPMI-8226 leukemia = tested on: RPMI-8226 leukemia
MDA-MB-468 breast = tested on: MDA-MB-468 breast
PC-3 prostate = tested on: PC-3 prostate
RXF 393 renal = tested on: RXF 393 renal
A549 NSCLC = tested on: A549 NSCLC
SK-OV-3 ovarian = tested on: SK-OV-3 ovarian
SF-539 CNS = tested on: SF-539 CNS
IGROV1 ovarian = tested on: IGROV1 ovarian
KM12 colon = tested on: KM12 colon
OVCAR-3 ovarian = tested on: OVCAR-3 ovarian
CCRF-CEM leukemia = tested on: CCRF-CEM leukemia
MDA-MB-435 melanoma = tested on: MDA-MB-435 melanoma
MDA-MB-231 breast = tested on: MDA-MB-231 breast
786-0 renal = tested on: 786-0 renal
HS 578T breast = tested on: HS 578T breast
OVCAR-5 ovarian = tested on: OVCAR-5 ovarian
SNB-19 CNS = tested on: SNB-19 CNS
UACC-257 melanoma = tested on: UACC-257 melanoma
BT-549 breast = tested on: BT-549 breast
HT29 colon = tested on: HT29 colon
MOLT-4 leukemia = tested on: MOLT-4 leukemia
UO-31 renal = tested on: UO-31 renal
EKVX NSCLC = tested on: EKVX NSCLC
A498 renal = tested on: A498 renal
NCI-H23 lung = tested on: NCI-H23 lung
NCI-H460 NSCLC = tested on: NCI-H460 NSCLC
DU-145 prostate = tested on: DU-145 prostate
HCT-15 colon = tested on: HCT-15 colon
SNB-75 CNS = tested on: SNB-75 CNS
NCI-H226 lung = tested on: NCI-H226 lung
COLO 205 colon = tested on: COLO 205 colon
NCI-H322M lung = tested on: NCI-H322M lung
HCC-2998 colon = tested on: HCC-2998 colon
T-47D breast = tested on: T-47D breast
HOP-62 NSCLC = tested on: HOP-62 NSCLC
LOX IMVI melanoma = tested on: LOX IMVI melanoma
K-562 leukemia = tested on: K-562 leukemia
ACHN renal = tested on: ACHN renal
NCI-H522 lung = tested on: NCI-H522 lung
CAKI-1 renal = tested on: CAKI-1 renal
SF-268 CNS = tested on: SF-268 CNS
HOP-92 NSCLC = tested on: HOP-92 NSCLC
OVCAR-8 ovarian = tested on: OVCAR-8 ovarian
MALME-3M melanoma = tested on: MALME-3M melanoma
SK-MEL-5 melanoma = tested on: SK-MEL-5 melanoma
MCF7 breast = tested on: MCF7 breast
SK-MEL-28 melanoma = tested on: SK-MEL-28 melanoma
NCI/ADR-RES ovarian = tested on: NCI/ADR-RES ovarian

Which results are given for `CCCCCCCC/C=C/CCCCCCCC(=O)OC[C@H]1O[C@@H](n2ccc(N)nc2=O)C(F)(F)[C@@H]1O`?
GI50 (HCT-116 colon): < 10 nM; TGI (HCT-116 colon): 10200 nM; GI50 (HL-60(TB) leukemia): < 10 nM; TGI (HL-60(TB) leukemia): < 10 nM; GI50 (OVCAR-4 ovarian): 38800 nM; TGI (OVCAR-4 ovarian): > 100000 nM; GI50 (SW-620 colon): < 10 nM; TGI (SW-620 colon): 46000 nM; GI50 (SF-295 CNS): < 10 nM; TGI (SF-295 CNS): 18.5 nM; GI50 (SN12C renal): < 10 nM; TGI (SN12C renal): 39.9 nM; GI50 (UACC-62 melanoma): < 10 nM; TGI (UACC-62 melanoma): < 10 nM; GI50 (TK-10 renal): > 100000 nM; TGI (TK-10 renal): > 100000 nM; GI50 (U251 glioblastoma): < 10 nM; TGI (U251 glioblastoma): < 10 nM; GI50 (M14 melanoma): < 10 nM; TGI (M14 melanoma): < 10 nM; GI50 (RPMI-8226 leukemia): < 10 nM; TGI (RPMI-8226 leukemia): < 10 nM; GI50 (MDA-MB-468 breast): < 10 nM; TGI (MDA-MB-468 breast): < 10 nM; GI50 (PC-3 prostate): 2050 nM; TGI (PC-3 prostate): 35600 nM; GI50 (RXF 393 renal): < 10 nM; TGI (RXF 393 renal): 90.2 nM; GI50 (A549 NSCLC): < 10 nM; TGI (A549 NSCLC): 11900 nM; GI50 (SK-OV-3 ovarian): < 10 nM; TGI (SK-OV-3 ovarian): 2420 nM; GI50 (SF-539 CNS): < 10 nM; TGI (SF-539 CNS): < 10 nM; GI50 (IGROV1 ovarian): < 10 nM; TGI (IGROV1 ovarian): 81400 nM; GI50 (KM12 colon): < 10 nM; TGI (KM12 colon): 15300 nM; GI50 (OVCAR-3 ovarian): < 10 nM; TGI (OVCAR-3 ovarian): 16700 nM; GI50 (CCRF-CEM leukemia): < 10 nM; TGI (CCRF-CEM leukemia): < 10 nM; GI50 (MDA-MB-435 melanoma): 138 nM; TGI (MDA-MB-435 melanoma): 15600 nM; GI50 (MDA-MB-231 breast): 234 nM; TGI (MDA-MB-231 breast): 13500 nM; GI50 ([…]-0 renal): < 10 nM; TGI (786-0 renal): < 10 nM; GI50 (HS 578T breast): < 10 nM; TGI (HS 578T breast): 16500 nM; GI50 (OVCAR-5 ovarian): < 10 nM; TGI (OVCAR-5 ovarian): > 100000 nM; GI50 (SNB-19 CNS): < 10 nM; TGI (SNB-19 CNS): 518 nM; GI50 (UACC-257 melanoma): < 10 nM; TGI (UACC-257 melanoma): 92 nM; GI50 (BT-549 breast): < 10 nM; TGI (BT-549 breast): < 10 nM; GI50 (HT29 colon): < 10 nM; TGI (HT29 colon): 8700 nM; GI50 (MOLT-4 leukemia): < 10 nM; TGI (MOLT-4 leukemia): < 10 nM; GI50 (UO-31 renal): < 10 nM; TGI (UO-31 renal): < 10 nM; GI50 (EKVX NSCLC): 57.6 nM; TGI (EKVX NSCLC): 15400 nM; GI50 (A498 renal): < 10 nM; TGI (A498 renal): 14900 nM; GI50 (NCI-H23 lung): < 10 nM; TGI (NCI-H23 lung): < 10 nM; GI50 (NCI-H460 NSCLC): < 10 nM; TGI (NCI-H460 NSCLC): < 10 nM; GI50 (DU-145 prostate): < 10 nM; TGI (DU-145 prostate): 2390 nM; GI50 (HCT-15 colon): < 10 nM; TGI (HCT-15 colon): 59700 nM; GI50 (SNB-75 CNS): < 10 nM; TGI (SNB-75 CNS): 49.2 nM; GI50 (NCI-H226 lung): 24.8 nM; TGI (NCI-H226 lung): 83.2 nM; GI50 (COLO 205 colon): < 10 nM; TGI (COLO 205 colon): 49.6 nM; GI50 (NCI-H322M lung): 1310 nM; TGI (NCI-H322M lung): > 100000 nM; GI50 (HCC-2998 colon): < 10 nM; TGI (HCC-2998 colon): 11.1 nM; GI50 (T-47D breast): < 10 nM; TGI (T-47D breast): 1560 nM; GI50 (HOP-62 NSCLC): < 10 nM; TGI (HOP-62 NSCLC): < 10 nM; GI50 (LOX IMVI melanoma): < 10 nM; TGI (LOX IMVI melanoma): 18.8 nM; GI50 (K-562 leukemia): < 10 nM; TGI (K-562 leukemia): 15000 nM; GI50 (ACHN renal): < 10 nM; TGI (ACHN renal): < 10 nM; GI50 (NCI-H522 lung): < 10 nM; TGI (NCI-H522 lung): 2220 nM; GI50 (CAKI-1 renal): < 10 nM; TGI (CAKI-1 renal): 2990 nM; GI50 (SF-268 CNS): < 10 nM; TGI (SF-268 CNS): < 10 nM; GI50 (HOP-92 NSCLC): 10.5 nM; TGI (HOP-92 NSCLC): 22400 nM; GI50 (OVCAR-8 ovarian): < 10 nM; TGI (OVCAR-8 ovarian): < 10 nM; GI50 (MALME-3M melanoma): < 10 nM; TGI (MALME-3M melanoma): 15100 nM; GI50 (SK-MEL-5 melanoma): < 10 nM; TGI (SK-MEL-5 melanoma): 24.7 nM; GI50 (MCF7 breast): < 10 nM; TGI (MCF7 breast): 14100 nM; GI50 (SK-MEL-28 melanoma): < 10 nM; TGI (SK-MEL-28 melanoma): 51500 nM; GI50 (NCI/ADR-RES ovarian): < 10 nM; TGI (NCI/ADR-RES ovarian): < 10 nM
